Target: T1, EGFR TMLRCS (BaF3-TMLRCS cell line) (Homo sapiens, UniProt P00533, C797S/L858R/T790M)
T1 construct: host or cells: BaF3 (murine pro-B cells) engineered to express EGFR TMLRCS
Experiment: HTRF Phospho EGFR TMLRCS assay (cellular)
Format: cell-based
Conditions: BaF3-TMLRCS cells, 4 hours incubation
Procedure: HTRF Phospho EGFR TMLRCS Assay (Cellular)
BaF3-TMLRCS cell line were obtained from Crownbio (San Diego, CA, USA). Cells were maintained at 37° C., 5% CO2 in RPMI ATCC (Gibco 31870) + 2 mM Glutamine + 0.5 µg/ml Puromycin supplemented with 10% fetal bovine serum (FBS) (Gibco).
Cells are transferred as above to Greiner Bio-One, Nr. 784-08 micro-titerplate at 20000 cells/well in 12.5 µl of growth medium/well after the plates had been pre-filled with 12.5 nl of DMSO solutions of the to be tested compound (in dose response) or DMSO only. After spinning the plates at 300 × g for 30 seconds the cells were incubated for 4 hours at 37C, 5% CO2, 95% humidity. The cells were lysed by adding to the compound mix 4 µl/well of the supplemented lysis buffer (Cis-bio, Phospho-EGFR HTRF kit, 64EG1PEH), followed by incubation for 30 min at room temperature with shaking (400 rpm). The plates were then frozen and stored overnight at -80C. […] The lidded plates were then incubated for 4 h at room temperature before reading the fluorescence emission at 616 and 665 nm using an Envision reader (Perkin Elmer). Data was analyzed in similar fashion as above using the normalized ratio of the 665 to 616 signals multiplied by 10000.

T1 sequence (P00533 25-1210 T790M/C797S/L858R): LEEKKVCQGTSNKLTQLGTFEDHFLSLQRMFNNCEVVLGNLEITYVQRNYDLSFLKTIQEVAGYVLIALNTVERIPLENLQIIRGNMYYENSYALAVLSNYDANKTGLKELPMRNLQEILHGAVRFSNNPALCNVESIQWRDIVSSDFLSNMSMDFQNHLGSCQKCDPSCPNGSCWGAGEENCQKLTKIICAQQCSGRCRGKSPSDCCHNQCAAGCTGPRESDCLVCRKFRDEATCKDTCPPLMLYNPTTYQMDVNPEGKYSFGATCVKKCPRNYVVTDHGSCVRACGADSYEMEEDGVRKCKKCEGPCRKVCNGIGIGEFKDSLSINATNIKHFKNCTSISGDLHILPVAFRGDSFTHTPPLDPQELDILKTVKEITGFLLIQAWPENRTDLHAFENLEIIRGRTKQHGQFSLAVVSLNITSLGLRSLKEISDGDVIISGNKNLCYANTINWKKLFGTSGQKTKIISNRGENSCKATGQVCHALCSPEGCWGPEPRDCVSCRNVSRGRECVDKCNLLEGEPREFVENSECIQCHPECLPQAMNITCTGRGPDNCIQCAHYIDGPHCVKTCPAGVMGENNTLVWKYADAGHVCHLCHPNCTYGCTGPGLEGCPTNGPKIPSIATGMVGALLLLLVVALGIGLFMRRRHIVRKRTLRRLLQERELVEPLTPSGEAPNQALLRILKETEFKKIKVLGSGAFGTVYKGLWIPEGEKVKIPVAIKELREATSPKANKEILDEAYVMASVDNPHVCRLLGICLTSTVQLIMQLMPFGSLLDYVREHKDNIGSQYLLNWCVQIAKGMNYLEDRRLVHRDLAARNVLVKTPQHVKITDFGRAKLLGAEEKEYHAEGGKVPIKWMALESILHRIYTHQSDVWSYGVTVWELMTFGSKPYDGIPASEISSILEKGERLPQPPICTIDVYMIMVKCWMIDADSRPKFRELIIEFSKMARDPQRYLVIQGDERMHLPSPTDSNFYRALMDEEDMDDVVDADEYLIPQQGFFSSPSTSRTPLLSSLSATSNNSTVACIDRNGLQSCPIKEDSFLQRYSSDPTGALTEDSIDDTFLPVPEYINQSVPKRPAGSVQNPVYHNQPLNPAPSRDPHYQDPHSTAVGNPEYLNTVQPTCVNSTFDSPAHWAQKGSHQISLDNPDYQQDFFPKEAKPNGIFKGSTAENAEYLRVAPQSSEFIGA

IC50: 3 nM
SMILES: O=C(Nc1nccs1)C(c1ncn2c1CCC2)N1Cc2c(Cl)cc(C#Cc3ccc(CN4CCC(CO)CC4)cc3)cc2C1=O (racemic) [Example 1, 2-[4-chloro-6-[2-[4-[[4-(hydroxymethyl)-1-piperidyl]methyl]phenyl]ethynyl]-1-oxo-isoindolin-2-yl]-2-(6,7-dihydro-5H-pyrrolo[1,2-c]imidazol-1-yl)-N-thiazol-2-yl-acetamide]

— patent publication US20230034696A1, “EGFR INHIBITORS” (Hoffmann-La Roche Inc., priority 2019, published 2023)
